Patent US20030054411A1, “GPR motifs and uses thereof” (priority 2001, published 2003)
Where no end group is shown, it is not given here.

B1: AGS3-GPR: GPR domain of AGS3 (Pro463-Ser650) containing the four GPR motifs, GST or His-tagged (protein)
chain: PREGSHSPLDSADVRVQVPRTGIPRAPSSDEECFFDLLSKFQSSRMDDQRCPLEEGQAGAAEATAAPTLEERAAQPSVTASPQTEEFFDLIASSQSRRLDDQRASVGSLPGLRITLNNVGHLRGDGDPQEPGDEFFNMLIKYQSSRIDDQRCPPPDVLPRGPTMPDEDFFSLIQRVQAKRMDEQRVDL
modifications: left off: a dimerising Fc or GST
notes: GPR domain of AGS3 (Pro463-Ser650) containing the four GPR motifs, GST or His-tagged

Experiments:
[1] = target: T1, Giα1 binding to GST-AGS3-GPR (Homo sapiens, UniProt P63096); experiment: Protein interaction assay: Giα1 binding to AGS3-GPR with GPR peptide; details: 10 μM GDP; Giα1 75 nM, AGS3-GPR 300 nM; read-out: IC50 for blocking the binding of Giα1 to GST-AGS3-GPR
T1 construct: made in house; host or cells: Sf9 insect cells (Giα1); bacteria (His-AGS3-GPR)
Method: (§1) A and B, the carboxyl region of AGS3 (Pro^463-Ser^650) containing all four GPR repeats was generated as a His-tagged (A) or GST fusion (B) protein for protein interaction assays as described under Examples. All interactions were done in the presence of 10 μM GDP, and the input lanes represent one-tenth of the G-protein used in each interaction assay. A, Giα1 (75 nM) was incubated with 300 nM His-tagged AGS3-GPR in the absence and presence of increasing amounts of the GPR peptide, after which bound Giα was isolated on a nickel affinity matrix, and samples were processed for immunoblotting with Giα antisera. […] C and D, GTPγ^35S binding to G-proteins (100 nM) was measured in the absence and presence of peptides as described in the Examples. Data are expressed as the percent of specific binding (˜5 pmol) observed in the absence of peptide and represent the means±S.E. derived from three experiments. […]
(§2) Protein Interaction Assays—The GPR domain of AGS3 (Pro^463-Ser^650) containing the four GPR motifs was generated as a glutathione S-transferase fusion protein by polymerase chain reaction using the full-length cDNA of AGS3 as a template. […] The interaction of GST-AGS3-GPR and HIS-tagged AGS3-GPR with G-proteins was assessed by protein interaction experiments using purified G-protein as described previously (33). […]

[2] = target: T2, Giα2 binding to GST-AGS3-GPR (Homo sapiens, UniProt P04899); experiment: Protein interaction assay: Giα2 binding to AGS3-GPR with GPR peptides; details: 10 μM GDP; read-out: IC50 for blocking the binding of Giα2 to GST-AGS3-GPR
T2 construct: made in house; host or cells: Sf9 insect cells (Giα2)
Method: as §1, §2

[3] = target: T3, Giα1 (Homo sapiens, UniProt P63096); experiment: GTPγS binding assay, Giα1; assay type: biochemical
T3 construct: made in house; host or cells: Sf9 insect cells
Method: as §1, with “antisera. The blot in the upper panel of A was stripped and reprobed with AGS3 antisera to provide internal controls for protein loading. B, Giα2 (75 nM) was incubated with 300 nM AGS3-GPR or GST in the presence and absence of 100 μM GPR consensus peptide, GPR peptide Q15A, or GPR peptide R23F.” for “antisera.”
GTPγS Binding Assays—GTPγS binding assays were generally conducted as described (39). […] Radioactivity bound to the filters was determined by liquid scintillation counting. […]

[4] = target: T4, Giα2 (Homo sapiens, UniProt P04899); experiment: GTPγS binding assay, Giα2; assay type: biochemical; details: G-protein 100 nM, 30 min, 24° C.; read-out: IC50 for inhibition of GTPγS binding to Giα2
T4 construct: made in house; host or cells: Sf9 insect cells
Method: A and B, the carboxyl region of AGS3 (Pro^463-Ser^650) containing all four GPR repeats was generated as a His-tagged (A) or GST fusion (B) protein for protein interaction assays as described under Examples. All interactions were done in the presence of 10 μM GDP, and the input lanes represent one-tenth of the G-protein used in each interaction assay. A, Giα1 (75 nM) was incubated with 300 nM His-tagged AGS3-GPR in the absence and presence of increasing amounts of the GPR peptide, after which bound Giα was isolated on a nickel affinity matrix, and samples were processed for immunoblotting with Giα antisera. The blot in the upper panel of A was stripped and reprobed with AGS3 antisera to provide internal controls for protein loading. B, Giα2 (75 nM) was incubated with 300 nM AGS3-GPR or GST in the presence and absence of 100 μM GPR consensus peptide, GPR peptide Q15A, or GPR peptide R23F. The immunoblots presented in A and B are representative of three experiments. C and D, GTPγ^35S binding to G-proteins (100 nM) was measured in the absence and presence of peptides as described in the Examples. Data are expressed as the percent of specific binding (˜5 pmol) observed in the absence of peptide and represent the means±S.E. derived from three experiments. The concentration of peptides in D is 10 μM.
GTPγS Binding Assays—GTPγS binding assays were generally conducted as described (39). G-proteins (100 nM) were preincubated for 20 min at 24° C. in the presence and absence of GPR peptides. Binding assays (duplicate determinations) were initiated by addition of 0.5 μM GTPγS (4.0×10^4 dpm/pmol), and incubations (total volume=50 μl) were continued for 30 min at 24° C. Both preincubations and GTPγS binding assays were conducted in binding buffer containing 2 mM MgCl2. Reactions were terminated by rapid filtration through nitrocellulose filters with 4×4-ml washes of stop buffer (50 mM Tris-HCl, 5 mM MgCl2, 1 mM EDTA, pH 7.4, at 4° C.). Radioactivity bound to the filters was determined by liquid scintillation counting. Nonspecific binding was defined by 100 μM […].

[5] = target: Gtα (Homo sapiens, UniProt P11488); experiment: Competition with Gβγ subunits for binding to Gtα
Sequence of Gtα (P11488 whole entry): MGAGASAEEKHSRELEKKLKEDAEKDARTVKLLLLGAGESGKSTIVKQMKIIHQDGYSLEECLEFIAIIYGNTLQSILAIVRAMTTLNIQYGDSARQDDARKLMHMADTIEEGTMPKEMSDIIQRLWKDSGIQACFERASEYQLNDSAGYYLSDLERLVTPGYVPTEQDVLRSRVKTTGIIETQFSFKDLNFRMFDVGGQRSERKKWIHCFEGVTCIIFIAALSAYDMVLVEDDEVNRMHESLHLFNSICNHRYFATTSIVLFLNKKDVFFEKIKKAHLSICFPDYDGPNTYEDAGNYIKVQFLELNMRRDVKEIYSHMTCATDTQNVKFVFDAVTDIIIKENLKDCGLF

T3 sequence (P63096 whole entry): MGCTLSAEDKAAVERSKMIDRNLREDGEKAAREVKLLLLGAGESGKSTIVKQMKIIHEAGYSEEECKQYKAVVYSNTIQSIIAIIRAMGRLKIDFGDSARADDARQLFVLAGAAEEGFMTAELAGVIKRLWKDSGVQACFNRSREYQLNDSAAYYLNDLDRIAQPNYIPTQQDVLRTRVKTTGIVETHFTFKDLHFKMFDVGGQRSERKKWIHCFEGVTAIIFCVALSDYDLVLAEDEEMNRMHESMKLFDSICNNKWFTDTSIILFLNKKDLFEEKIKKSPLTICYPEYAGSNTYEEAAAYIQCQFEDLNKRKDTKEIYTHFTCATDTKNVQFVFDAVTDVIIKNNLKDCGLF
T2 sequence (P04899 2-355 limits assumed): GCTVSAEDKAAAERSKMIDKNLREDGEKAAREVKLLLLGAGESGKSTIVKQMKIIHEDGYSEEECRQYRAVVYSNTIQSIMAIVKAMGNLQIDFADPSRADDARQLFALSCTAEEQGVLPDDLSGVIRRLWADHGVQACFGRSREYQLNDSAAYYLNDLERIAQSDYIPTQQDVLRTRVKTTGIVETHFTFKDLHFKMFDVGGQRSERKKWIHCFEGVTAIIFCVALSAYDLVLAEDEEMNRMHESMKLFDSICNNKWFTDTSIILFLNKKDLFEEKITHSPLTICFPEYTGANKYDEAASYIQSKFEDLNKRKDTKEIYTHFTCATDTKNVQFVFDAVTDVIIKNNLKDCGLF
T4 sequence (P04899 whole entry): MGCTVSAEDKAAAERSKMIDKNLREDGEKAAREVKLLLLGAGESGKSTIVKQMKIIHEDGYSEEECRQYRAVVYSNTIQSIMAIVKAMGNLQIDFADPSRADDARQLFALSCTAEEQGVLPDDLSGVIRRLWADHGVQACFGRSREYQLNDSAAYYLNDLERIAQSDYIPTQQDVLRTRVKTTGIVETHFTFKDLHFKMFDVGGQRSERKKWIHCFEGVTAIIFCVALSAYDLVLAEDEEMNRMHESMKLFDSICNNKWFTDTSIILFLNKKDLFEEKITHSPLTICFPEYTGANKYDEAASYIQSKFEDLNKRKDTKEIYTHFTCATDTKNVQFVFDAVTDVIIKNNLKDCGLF
T1 sequence (P63096 2-354 limits assumed): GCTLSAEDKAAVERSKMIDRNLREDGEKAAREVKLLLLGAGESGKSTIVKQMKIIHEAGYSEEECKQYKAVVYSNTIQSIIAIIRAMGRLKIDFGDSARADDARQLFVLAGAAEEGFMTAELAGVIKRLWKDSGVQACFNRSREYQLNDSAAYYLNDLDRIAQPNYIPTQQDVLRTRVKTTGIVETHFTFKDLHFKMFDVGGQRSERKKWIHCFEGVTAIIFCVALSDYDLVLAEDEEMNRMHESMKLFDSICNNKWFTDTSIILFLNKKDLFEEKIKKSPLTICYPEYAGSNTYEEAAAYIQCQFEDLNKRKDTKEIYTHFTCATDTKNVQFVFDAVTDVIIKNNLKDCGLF

IC50 [1] [nM]	IC50 [2] [nM]	IC50 ([3]; G-protein 100 nM, 30 min, 24° C., read-out: IC50 for inhibition of GTPγS binding to Giα1) [nM]	IC50 [4] [nM]	GTPγS binding to Giα1 (AGS3-GPR protein) [3]	competition with Gβγ subunits for binding to Gtα [5]	Molecule
~200	~200	~200	~200	–	–	TMGEEDFFDLLAKSQSKRMDDQRVDLAG-NH2 [GPR consensus peptide]
–	–	–	–	inhibited	effectively competed	B1
